From patent publication US20130090385A1, “NOVEL SPECIFIC CASPASE-10 INHIBITORS” (MERCK PATENT GESELLSCHAFT MIT BESCHRANKTER HAFTUNG, priority 2005, published 2013)
Where two headings read alike, the source gives them in different places.

What was measured:
[1] = target: T1, Recombinant human caspase-2 (Homo sapiens, UniProt P42575); experiment: delayed-time fluorescence caspase inhibition test, caspase-2
T1 sequence (P42575 1-452): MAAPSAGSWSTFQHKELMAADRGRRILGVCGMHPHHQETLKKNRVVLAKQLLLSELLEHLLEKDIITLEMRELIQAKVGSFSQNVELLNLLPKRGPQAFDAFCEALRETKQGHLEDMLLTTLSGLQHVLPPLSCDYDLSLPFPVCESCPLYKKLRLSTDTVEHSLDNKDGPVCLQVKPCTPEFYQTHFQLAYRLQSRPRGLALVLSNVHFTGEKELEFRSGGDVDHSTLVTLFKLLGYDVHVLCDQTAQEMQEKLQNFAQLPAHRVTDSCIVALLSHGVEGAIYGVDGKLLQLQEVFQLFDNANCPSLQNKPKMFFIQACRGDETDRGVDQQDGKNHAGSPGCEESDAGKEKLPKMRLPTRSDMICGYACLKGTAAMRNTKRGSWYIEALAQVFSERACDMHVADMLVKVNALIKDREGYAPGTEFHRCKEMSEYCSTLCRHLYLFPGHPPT
Procedure: (§1) The substrate used is a tetrapeptide specific to this caspase, having at one of its ends a fluorescent europium marker (W1284) and at the other end a europium chelate fluorescence quencher (QSy-7): Eu-W1284-CIETDK-QSy-7.
(§2) The caspase cleaves the substrate, releasing the quencher. Thus, by excitation at 340 nm, the signal emitted by the fluorescence of the europium is read by WALLAC Victor^2 reader at 615 nm.
(§3) They are ready for use or may be divided into aliquots and stored at −80° C.. […] 20 μl of this solution are distributed per well of the assay plate. […] The assay is performed with 1 U of enzyme per well, by distributing 20 μl of the diluted solution per well. • The standard inhibitors: The standard inhibitors are dissolved in DMSO to a concentration of 10 mM. They are tested at IC20 and at IC50 on the caspases they inhibit (see following table).
(§4) They are then distributed in the wells using this solution to reach the final concentration of IC20 or IC50, i.e. 3 μl in 33 μl of final reaction volume (dilution 1/11). Thus, the final concentration of DMSO in the well is 0.3% (v/v) final. […] An intermediate dilution (1/6.6) is prepared in DMSO by diluting 10 μl of the concentrated solution in 66 μl of DMSO (final volume). […] The inhibitors are then distributed in the wells to reach the final screening concentration (10 μM), i.e. 3 μl in 33 μl of final reaction volume (dilution 1/11) and a final concentration of DMSO of 0.3% (v/v) in the well. • Protocol:
(§5) The incubation takes place for 3 hours 30 minutes at room temperature before reading the fluorescence in delayed time on the WALLAC Victor^2 reader with the filters corresponding to the fluorescence of europium (excitation filter: 340 nm, emission filter: 615 nm).
(§6) The inhibitors are diluted using solutions with concentrations of less than 20 mM in DMSO, and then prediluted in the caspase buffer. […] The specificity factor for caspase-10 is calculated as the following ratio:

[2] = target: T2, Recombinant human caspase-3 (Homo sapiens, UniProt P42574); experiment: delayed-time fluorescence caspase inhibition test, caspase-3
T2 sequence (P42574 29-277): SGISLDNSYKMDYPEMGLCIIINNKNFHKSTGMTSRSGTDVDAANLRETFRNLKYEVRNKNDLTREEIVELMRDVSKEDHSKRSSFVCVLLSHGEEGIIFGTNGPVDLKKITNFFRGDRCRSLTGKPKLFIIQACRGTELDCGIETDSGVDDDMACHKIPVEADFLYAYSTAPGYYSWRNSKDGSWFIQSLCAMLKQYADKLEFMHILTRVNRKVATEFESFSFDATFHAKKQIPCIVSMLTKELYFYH
Procedure: as §1, §2
20 μl of this solution are distributed per well of the assay plate. […] The assay is performed with 1 U of enzyme per well, by distributing 20 μl of the diluted solution per well. • The standard inhibitors: The standard inhibitors are dissolved in DMSO to a concentration of 10 mM. They are tested at IC20 and at IC50 on the caspases they inhibit (see following table). The concentrations mentioned in the table are the final concentrations in the assay wells.
as §4
The volumes and the protocol were optimised for automated use.
as §5
The inhibitors are diluted using solutions with concentrations of less than 20 mM in DMSO, and then prediluted in the caspase buffer.

[3] = target: T3, Recombinant human caspase-6 (Homo sapiens, UniProt P55212); experiment: delayed-time fluorescence caspase inhibition test, caspase-6
T3 sequence (P55212 24-293): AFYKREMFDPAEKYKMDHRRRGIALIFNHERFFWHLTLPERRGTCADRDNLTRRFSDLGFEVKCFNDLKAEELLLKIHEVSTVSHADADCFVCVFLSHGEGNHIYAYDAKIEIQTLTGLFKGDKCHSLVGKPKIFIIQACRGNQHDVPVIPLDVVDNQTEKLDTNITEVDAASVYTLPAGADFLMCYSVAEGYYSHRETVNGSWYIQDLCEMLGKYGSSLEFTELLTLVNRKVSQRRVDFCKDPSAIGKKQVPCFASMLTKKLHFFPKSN
Procedure: as §1, §2, §3, §4, §5, §6

[4] = target: Recombinant human caspase-8 (Homo sapiens, UniProt Q14790); experiment: delayed-time fluorescence caspase inhibition test, caspase-8
Procedure: as §1, §2, §3, §4, §5, §6

[5] = target: T4, Recombinant human caspase-9 (Homo sapiens, UniProt P55211); experiment: delayed-time fluorescence caspase inhibition test, caspase-9
T4 sequence (P55211 1-416): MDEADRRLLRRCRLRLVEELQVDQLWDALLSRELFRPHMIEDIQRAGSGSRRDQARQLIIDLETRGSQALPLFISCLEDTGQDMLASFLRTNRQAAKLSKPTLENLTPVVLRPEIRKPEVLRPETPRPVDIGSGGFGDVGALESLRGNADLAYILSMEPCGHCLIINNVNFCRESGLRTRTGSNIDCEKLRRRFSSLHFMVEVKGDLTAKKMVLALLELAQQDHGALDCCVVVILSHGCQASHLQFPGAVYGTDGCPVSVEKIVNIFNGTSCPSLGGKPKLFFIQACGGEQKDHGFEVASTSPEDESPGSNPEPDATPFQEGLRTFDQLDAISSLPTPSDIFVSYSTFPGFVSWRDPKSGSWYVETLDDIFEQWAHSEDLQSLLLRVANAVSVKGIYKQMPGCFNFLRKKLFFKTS
Procedure: as §1, §2, §3, §4, §5, §6

[6] = target: T5, Recombinant human caspase-10 (Homo sapiens, UniProt Q92851); experiment: delayed-time fluorescence caspase inhibition test, caspase-10
T5 sequence (Q92851 220-521): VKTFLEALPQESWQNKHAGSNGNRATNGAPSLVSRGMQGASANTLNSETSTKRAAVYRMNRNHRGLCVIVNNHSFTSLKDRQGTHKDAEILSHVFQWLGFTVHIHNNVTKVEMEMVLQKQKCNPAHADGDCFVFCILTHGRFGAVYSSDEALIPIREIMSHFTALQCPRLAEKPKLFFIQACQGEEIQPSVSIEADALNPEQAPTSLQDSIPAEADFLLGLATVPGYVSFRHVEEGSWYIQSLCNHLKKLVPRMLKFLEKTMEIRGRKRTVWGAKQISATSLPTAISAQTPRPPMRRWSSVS
Procedure: as §1, §2, §3, §4, §5, §6

Sequence of Recombinant human caspase-8 (Q14790 217-479): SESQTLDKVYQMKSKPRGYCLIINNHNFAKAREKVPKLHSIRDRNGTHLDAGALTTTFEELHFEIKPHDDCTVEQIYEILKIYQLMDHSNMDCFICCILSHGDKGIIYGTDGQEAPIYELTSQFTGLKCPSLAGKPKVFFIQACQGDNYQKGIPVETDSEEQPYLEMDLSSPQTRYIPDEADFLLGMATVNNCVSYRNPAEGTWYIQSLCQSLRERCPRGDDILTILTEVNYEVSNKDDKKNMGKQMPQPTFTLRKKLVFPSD

| IC50 [1] [µM] | IC50 [2] [µM] | IC50 [3] [µM] | IC50 [4] [µM] | IC50 [5] [µM] | IC50 [6] [µM] | SMILES | IC50 ([1]; read-out: Inhibition IC50 Caspase-2, tested 100 nM to 200 μM, 1% DMSO, 3 h 30 min at room temperature) [µM] | IC50 ([2]; read-out: Inhibition IC50 Caspase-3, tested 100 nM to 200 μM, 1% DMSO, 3 h 30 min at room temperature) [µM] | IC50 ([3]; read-out: Inhibition IC50 Caspase-6, tested 100 nM to 200 μM, 1% DMSO, 3 h 30 min at room temperature) [µM] | IC50 ([4]; read-out: Inhibition IC50 Caspase-8, tested 100 nM to 200 μM, 1% DMSO, 3 h 30 min at room temperature) [µM] | IC50 ([5]; read-out: Inhibition IC50 Caspase-9, tested 100 nM to 200 μM, 1% DMSO, 3 h 30 min at room temperature) [µM] | IC50 ([6]; read-out: Inhibition IC50 Caspase-10, tested 100 nM to 200 μM, 1% DMSO, 3 h 30 min at room temperature) [µM] |
| --- | --- | --- | --- | --- | --- | --- | --- | --- | --- | --- | --- | --- |
| > 200 | > 200 | > 200 | > 200 | > 200 | 0.281 | O=S(=O)(NCC1(Cc2ccc(CCO)cc2)CCCC1)c1ccc2ccccc2c1 [Example 51] | – | – | – | – | – | – |
| > 200 | > 200 | > 200 | > 200 | > 200 | 3.69 | O=[N+]([O-])c1ccc(S(=O)(=O)NCC2(Cc3ccc(CCO)cc3)CCCC2)cc1 [Example 52] | – | – | – | – | – | – |
| > 200 | > 200 | > 200 | > 200 | > 200 | 0.989 | O=S(=O)(NCC1(Cc2ccc(CCO)cc2)CCC1)c1ccc(Cl)cc1 [Example 56] | – | – | – | – | – | – |
| > 200 | > 200 | > 200 | > 200 | > 200 | 3.05 | Cc1ccc(S(=O)(=O)NCC2(Cc3ccc(CCO)cc3)CCC2)cc1 [Example 57] | – | – | – | – | – | – |
| > 200 | > 200 | > 200 | > 200 | 46.7 | 0.143 | O=S(=O)(NCC1(Cc2ccc(CCO)cc2)CCCC1)c1c(F)c(F)c(F)c(F)c1F [Example 58] | – | – | – | – | – | – |
| > 200 | > 200 | > 200 | > 200 | > 200 | 4.06 | Cc1ccc(S(=O)(=O)NCC2(Cc3ccc(CCO)cc3)CCCC2)cc1 [Example 59] | – | – | – | – | – | – |
| > 200 | > 200 | > 200 | > 200 | > 200 | 1.79 | O=S(=O)(NCC1(Cc2ccc(CCO)cc2)CCCC1)c1cc(F)c(F)c(F)c1 [Example 61] | – | – | – | – | – | – |
| > 200 | > 200 | > 200 | > 200 | > 200 | 6.22 | O=S(=O)(NCC1(Cc2ccc(CCO)cc2)CCCC1)c1cc(Cl)cc(Cl)c1 [Example 62] | – | – | – | – | – | – |
| > 200 | > 200 | > 200 | > 200 | > 200 | 6.56 | Cc1cccc(S(=O)(=O)NCC2(Cc3ccc(CCO)cc3)CCCC2)c1 [Example 63] | – | – | – | – | – | – |
| > 200 | > 200 | > 200 | > 200 | > 25 | 0.25 | O=S(=O)(NCC1(Cc2ccc(CCO)cc2)CCCC1)c1ccc(Cl)c(C(F)(F)F)c1 [Example 65] | – | – | – | – | – | – |
| – | – | – | – | – | – | O=S(=O)(NCC1(Cc2ccc(CCO)cc2)CCC1)c1c(F)c(F)c(F)c(F)c1F [Example 66] | > 200 | > 200 | > 200 | > 200 | > 200 | 0.393 |
